Data on two compounds can be found in PMC7796031, “Studies of Coumarin Derivatives for Constitutive Androstane Receptor (CAR) Activation” (Molecules, 2020).

Series [1] can be described thus: Preliminary pharmacokinetic study, plasma concentration by RP-HPLC-fluorescence. Type of series: in vivo, C57BL/6 mice. The settings on record: for desired plasma concentration (10 μM) reached: dose 0.5 mg/mouse, desired ~2 μg/mL for scoparone, ~3 μg/mL for 50. From the text: S23 Preliminary pharmacokinetic studies of scoparone and 6,7-diprenoxycoumarin
Table S1 Blood concentration of scoparone. mouse Dose given (mg) Body weight (g) Time (min) Cal. Conc. (µg/ml) […]
Table S2 Blood concentration of 6,7-diprenoxycoumarin.
Adopt previous study on fraxetin (unpublished result) , a coumarin compound, RP -HPLC -fluorescence method (excitation 380 nm and emission 480 nm ) was applied on analysis of the concentration of scoparone and 6,7 -diprenoxycoumarin. […]
without interference with endogenous plasma constituents. […]
retention time of approximately 7.51 in mouse plasma.
0.01 to 10.00 µg/ml for scoparone and 0.025 to 6.25 µg/ml for 6,7 -diprenoxycoumarin. The relativ e error and coefficient of variance are all below 15 %. The LOQ were 0.01 and 0.005 µg/ml for scoparone and 6,7 - diprenoxycoumarin. Linearity over the investigated concentration was obtained.
After method validation, C57BL/6 mice were given scoparone (i.p.) or 6,7 -diprenoxycoumarin and plasma […]
In pharmacological assay, the desired scoparone […]
the amount of drug increased to 0.5 mg/mice. Thus, the CAR activating effect may not be seen in vivo, which can account for no blood sugar lowering effects of 6,7-diprenoxycoumarin in vivo.
Acetonitrile HPLC-grade (LiChrosolv® ) were purchased from Sigma-Aldrich Chemie GmbH. Deionized water was purified on a Milli-Q system. Scoparone and 6,7-diprenoxycoumarin were synthesized from our […]
lab and purity was > 95 % from HPLC-UV method.
Instrumentation and Chromatographic Condition
Hitachi L-7100 liquid chromatography system (Hitachi, Japan) comprised a Hitachi D-7000 interface, a Hitachi L-7200 auto sampler, a Hitachi L-7400 UV detector and a Hitachi L-2480 FL detector. The HPLC colum consisted of a Thermo Hypurity® RP-18 column (200 × 4.6 mm, 5 µm) connected to a Hichrom ODS guard column. The isocratic elution was applied for scoparone (ACN-H2O = 3:7) and 6,7-diprenoxycoumarin (ACN-H2O = 7:3). The flow rate was set at 1.0 ml/min. The detection fluorescence was set at excitation 380 nm and emission 480 nm. A volume of 20 µL of sample was subjected to HPLC for […]
Animals and Sample Preparation
Eight-week old male or female C57/BL6 mice were acquired from BioLASCO Taiwan Co., Ltd. Experimental animals were allowed to acclimate to the controlled photoperiod (a cycle of 12-hr light/ 12-hr dark), humidity (40-60% relative humidity) and temperature (22 ± 2 °C) with ad libitum supply of standard chow diets and drinking water for one week prior to the experimental treatment in accordance with the Guide for the Care and Use of Laboratory Animals (Institute of Laboratory Animal Resources Commission on Life Sciences, 2011). Acclimated animals were randomly separated into two groups: scoparone-treated or 6,7-diprenoxycoumarin-treated. Mice were administered indicated dose i.p. All mice were anesthetized with Zoetil (10 mg/ml, 0.05 ml/10 gmbw, i.p.) before blood sampling. The blood samples (approximately 300 µL) were […]
centrifuging at 10,000 rpm for 10 min, the plasma samples were obtained. The plasma (50 µL) was mixed with 150 µL ACN, vortexed, and centrifuged for […], 10 mins and at 4 °C. The supernatant was obtained and 20 µL of sample was subjected to HPLC analysis.
Institute of Laboratory Animal Resources Commission on Life Sciences, National Research Council. In Guide for the Care and Use of Laboratory Animals, 8th ed.; National Academy Press: Washington, DC, 2011.

Series [2] relates to phosphoenopyruvate carboxykinse (PEPCK) mRNA expression. Nature of the series: PEPCK mRNA expression induced by dexamethasone and 8-bromo-cAMP in H4IIE cells. The format is cell-based, rat. The settings on record: dexamethasone (500 nM) + 8-bromo-cAMP, test compounds as printed. The method, then:
S21 Effects of scoparone, 50 (PLH), and 6 on phosphoenopyruvate carboxykinse (PEPCK) mRNA expression induced by dexamethasone and 8-bromo-cAMP.
A quantified result of dexamethasone (500 nM) and 8-bromo-cAMP (100µM) induced PEPCK mRNA expression in the presence or absence of scoparone, 50 (PLH) and 6 at 0.78 µM was shown. Insulin (10 nM) was served as an experimental control. Quantified data was presented as mean ± S.E.M. (n = 4). **P < 0.01 and ***P < 0.001 when compared with induction control (None).
PEPCK mRNA could be induced by dexamethasone and 8-bromo-cAMP after 3hr. The presence of insulin […]
Scoparone, at 0.78 µM, can suppress PEPCK
In contrast, both 50 (PLH) and 6 could also suppress PEPCK
Cell culture: The rat H4IIE cells were cultured in Dulbecco’s Modified Eagle’sMedium (DMEM) containing 1 g/L glucose, 5% (v/v) fetal calf serum (FBS) and 1% (v/v) antibiotics (100 U/mL penicillin and 0.1 g/L streptomycin). Cultured cells were maintained at 37 ◦C in an atmosphere of 5% CO2 and 95% air.
The measurement of PEPCK gene expression: H4IIE cells were seeded into 6 cm dish and allowed for the attachment. After serum starvation overnight, cells were treated with various conditions described in the figure legend. After treatment, total RNA of each treatment was extracted using TRI-reagent according to the manufacturer’s instructions. The pelleted RNA was dissolved in distilled water, quantified with NanoDrop™ 1000 Spectrophotometer (Thermo Fisher Scientific, USA) and stored at −70 ◦C. Total RNA (1µg) was reverse transcribed to generate templates. 50 ng of cDNA was employed for further PCR. The sequences of […]
primers for β-actin: 5’-[…]- 3’ and 5’-[…]-3’ and […]
(1 picture or pasted object on this page, not shown here)

Series [3] concerns CAR protein. Nature of the series: Immunofluorescence staining for CAR translocation in Hep3B cells. Type of series: cell-based, human. The settings on record: 10 μM, 2 h. The method, then:
Figure 3 Image of immunofluorescence staining for CAR translocation in Hep3B cells after 6,7-diprenoxycoumarin (50) treatment (A) and scoparone treatment (C). Hep3B cells were treated with 50 (10 μM) for 2 h. The negative control group was pre-treated with 10 nM okadaic acid (OA). The blue and green fluorescence stands for signals of nuclei and CAR protein, respectively. The protein expression of nuclear CAR after 6,7-diprenoxycoumarin (50) treatment for 2 h (B).
Hep3B cells (4 × 10^5) were grown on coverslips for overnight then washed twice with 1× PBS and fixed with 4% paraformaldehyde in 1× PBS for 30 min at room temperature. Cells were then permeabilized with 1× PBS containing 0.1% (v/v) Triton X-100 for 10–15 min and blocked in 1× PBS containing 5% BSA for 1 h at room temperature. CAR antibody (1:200 dilutions) was added and reacted at room temperature for 2 h in 1× PBS containing 5% BSA. FITC-conjugated goat anti-rabbit IgG antibody was added for another 1 h at room temperature. Coverslips were mounted and images were acquired under a fluorescence microscope.

With `COc1cc2ccc(=O)oc2cc1OC` [Compound 39, scoparone], the Blood concentration, Cal. Conc. was determined as 410 ng/mL in series [1] (Table S1, Study 1 mouse 1, dose given 0.2 mg i.p., 10 min); 260 ng/mL in series [1] (Table S1, Study 1 mouse 2, dose given 0.2 mg i.p., 60 min); 40 ng/mL in series [1] (Table S1, Study 1 mouse 3, dose given 0.2 mg i.p., 315 min); 40 ng/mL in series [1] (Table S1, Study 2 mouse 3, dose given 0.5 mg i.p., 320 min). Besides, the “desired plasma concentration (10 μM) reached” value in series [1] is recorded as “can be achieved”. Further, the “suppression of PEPCK mRNA induction” value in series [2] is “level similar to insulin”.

For the compound `CC(C)=CCOc1cc2ccc(=O)oc2cc1OCC=C(C)C` [Compound 50, 6,7-diprenoxycoumarin], in series [3], the “translocation of CAR protein” value is recorded as “confirmed”. In addition, the Blood concentration, Cal. Conc. in series [1] (Table S2, Study 1 mouse 1, dose given 0.36 mg i.p., 10 min) came to 560 ng/mL; in series [1] (Table S2, Study 1 mouse 2, dose given 0.36 mg i.p., 60 min), 80 ng/mL; in series [1] (Table S2, Study 1 mouse 3, dose given 0.36 mg i.p., 110 min), 70 ng/mL; in series [1] (Table S2, Study 1 mouse 4, dose given 0.36 mg i.p., 360 min), 40 ng/mL; in series [1] (Table S2, Study 2 mouse 1, dose given 0.5 mg i.p., 11 min), 310 ng/mL; in series [1] (Table S2, Study 2 mouse 2, dose given 0.5 mg i.p., 60 min) it was 120 ng/mL. In series [1] (Table S2, Study 2 mouse 3, dose given 0.5 mg i.p., 318 min), this compound yielded a Blood concentration, Cal. Conc. of 27 ng/mL. For the same compound, in series [1], the “desired plasma concentration (10 μM) reached” value is listed as “cannot be obtained”. The “suppression of PEPCK mRNA induction” value in series [2] is recorded as “less potent”.
